Patent US20250042920A1 (OCEAN UNIVERSITY OF CHINA, priority 2021, published 2025)
Blank lines part the entries; values can stand above or below the compound they belong to.

Key:
MNK1 = MNK1 (Homo sapiens, UniProt Q9BUB5); experiment: MNK1 kinase inhibition assay (LANCE Ultra kinase activity assay, PerkinElmer); format: biochemical; conditions: 450 μM ATP; for inhibition at 1 µM: inhibition rate at 1000 nM compound, 60 min, 25° C., read-out: Inhibitory activity(1 μM) MNK1
Protocol: (§1) MNK1 and MNK2 kinase inhibition assays were performed using LANCE Ultra kinase activity assay developed by PerkinElmer. […] The test steps are as follows: At 25° C., 1.00 ng MNK1 or 0.05 ng MNK2 was prepared with different concentrations (10000, 1000, 100, 10, 1 nM) of the tested compound to form a total volume of 10 μL reaction mixture (MNK1: 12.5 nM CREB, 450 μM ATP, 2 mM DTT, 1× buffer; MNK2: 12.5 nM CREB, 100 μM ATP, 2 mM DTT, 1×buffer), and incubation for 60 min. The reaction was terminated by adding 5 μL EDTA/Detection buffer and 5 μL Eu-CREB/Detection buffer. The ratio of HTRF signals at 615 nm and 665 nm was detected after 60 min of incubation. The inhibition rate was calculated by measuring the compounds at 1000 nM.
(§2) Then five different concentrations (10000, 1000, 100, 10, 1 nM) of the tested compounds were measured, and the IC50 value was calculated according to the inhibition rate fitting curve.

MNK2 = MNK2 (Homo sapiens, UniProt Q9HBH9); experiment: MNK2 kinase inhibition assay (LANCE Ultra kinase activity assay, PerkinElmer); format: biochemical; conditions: 100 μM ATP; for inhibition at 1 µM: inhibition rate at 1000 nM compound, 60 min, 25° C., read-out: Inhibitory activity(1 μM) MNK2
Protocol: as §1, §2

[1] = tested on: C57BL/6J male mice, high-fat diet obesity model; experiment: Weight loss trial in a high-fat feeding obesity model; format: in vivo; conditions: obese C57BL/6J mice; 50 or 100 mg/kg daily gavage; after 1 month of treatment
Protocol: C57BL/6J male mice were fed with high-fat diet (60 kcal %) and low-fat diet (10 kcal %), respectively. After 16 weeks, the obesity model was successfully established (the body weight of high-fat diet was higher than 20% of the body weight of low-fat diet). They were divided into blank group, 12 high dose group (100 mg/kg), 12 low dose group (50 mg/kg) and orlistat group (50 mg/kg). The mice in the control group were given normal saline as the control, and the daily afternoon gavage of the drug for 4 weeks.

[2] = tested on: STZ+ high-fat fed type 2 diabetic Kunming mice; experiment: Hypoglycemic test in STZ+ high-fat fed diabetic mouse model; format: in vivo; conditions: for blood glucose: gavage, 8 weeks (FIG. 1)
Protocol: A total of 50 male Kunming mice were fed in a constant temperature of 25° C. with free access to food and water. After 5 days of adaptive feeding, the mice were divided into two groups for the first time. The first group (n=10) was the blank group (C) fed with normal diet, and the rest were the second group (n=40) fed with 60% high-fat diet to induce high-fat model and free access to water for 4 weeks. At the fifth week, the mice in the second group were injected with streptozotocin (STZ) to induce type 2 diabetes model. The total injection dose was 150 mg/kg, and the feeding conditions were unchanged. Type 2 diabetic mice with blood glucose levels higher than 11 mmol/L were divided into model group (M, n=10) and […]. Distilled water), metformin group (Meft, 225 mg/kg/d), compound 12 low-dose group (2A-L, 50 mg/kg/d), compound 12 high-dose group (2A-H, 100 mg/kg/d). The […] in group M were given distilled water by gavage every morning, and the dosage was Meft: 225 mg/kg. 2A-L: 50 mg/kg; 2A-H: 100 mg/kg. The mice were administrated by gavage at a dose of […] for 8 weeks, and the body weight and fasting blood glucose were measured regularly during the period.

male db/db mice = experiment: Insulin tolerance and liver function improvement test in male db/db mouse model; format: in vivo
Protocol: Six-week-old male db/db mice were randomly divided into 6 groups of 12 mice in each group: Model group (M, distilled water), metformin group (Meft, 200 mg/kg/d), lovastatin group (6 mg/kg), compound 12 low dose group (20 mg/kg/d), compound 12 middle dose group (40 mg/kg/d), compound 12 high dose group (80 mg/kg/d). They were raised in a constant temperature of 25° C. and fed and drinking freely. The mice were administrated by gavage at a dose of […] for 6 weeks, and the body weight and fasting blood glucose were measured regularly during the period.
Insulin tolerance test (ITT) was performed with […] (1.0 U/ml, 1.0 U/kg) and fasting for 4 hours in the morning. In the afternoon experiment, weight was weighed, blood glucose was measured before insulin injection, insulin injection volume was calculated according to body weight, and blood glucose was measured at 15 min, 30 min, 45 min, and 60 min. At the end of the experiment, each cage was supplemented with feed.

[3] = compared with the model group (FIG. 3)
[4] = high-dose group (80 mg/kg/d) vs model group (FIG. 5)

Sequence of MNK1 (Q9BUB5 whole entry): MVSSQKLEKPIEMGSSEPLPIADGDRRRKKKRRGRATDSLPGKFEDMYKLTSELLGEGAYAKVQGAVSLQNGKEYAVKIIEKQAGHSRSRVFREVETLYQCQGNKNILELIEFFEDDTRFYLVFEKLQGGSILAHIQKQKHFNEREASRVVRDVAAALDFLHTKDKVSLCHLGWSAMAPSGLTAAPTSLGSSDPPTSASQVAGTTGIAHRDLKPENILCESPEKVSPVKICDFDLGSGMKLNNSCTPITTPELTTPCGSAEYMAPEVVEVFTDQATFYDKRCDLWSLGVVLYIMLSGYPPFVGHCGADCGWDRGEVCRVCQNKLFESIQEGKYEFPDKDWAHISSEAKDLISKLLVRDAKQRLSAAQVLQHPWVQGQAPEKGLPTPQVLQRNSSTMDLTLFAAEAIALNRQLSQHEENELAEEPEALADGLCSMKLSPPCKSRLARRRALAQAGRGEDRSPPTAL
Sequence of MNK2 (Q9HBH9 whole entry): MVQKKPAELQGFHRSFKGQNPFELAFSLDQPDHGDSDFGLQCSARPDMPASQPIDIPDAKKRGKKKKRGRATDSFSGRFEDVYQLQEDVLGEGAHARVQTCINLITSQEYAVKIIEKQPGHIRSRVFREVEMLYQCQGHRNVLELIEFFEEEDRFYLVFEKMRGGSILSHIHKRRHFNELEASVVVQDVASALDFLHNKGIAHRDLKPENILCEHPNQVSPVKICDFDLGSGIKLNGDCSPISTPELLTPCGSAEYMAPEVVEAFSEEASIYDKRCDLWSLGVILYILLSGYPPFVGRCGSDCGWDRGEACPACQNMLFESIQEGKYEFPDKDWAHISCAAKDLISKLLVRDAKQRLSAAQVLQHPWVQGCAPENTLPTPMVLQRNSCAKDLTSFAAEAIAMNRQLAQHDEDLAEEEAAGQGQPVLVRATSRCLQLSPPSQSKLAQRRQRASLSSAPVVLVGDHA

- IC50 (MNK1; five concentrations 10000-1 nM): < 50 nM
- inhibition at 1 µM (MNK1): > 75%
- IC50 (MNK2; five concentrations 10000-1 nM): < 50 nM
- inhibition at 1 µM (MNK2): > 75%
SMILES: CN(C)C1CCN(C(=O)c2ccc(-c3nn4c(-c5ccc(C#N)cc5)cnc4s3)cc2)CC1 [Compound 12, 4-(2-(4-(4-(dimethylamino)piperidine-1-carbonyl)phenyl)imidazo[2,1-b][1,3,4]thiadiazol-5-yl)benzonitrile]
- body weight [1]: decreased significantly
- glucose tolerance ([2]; 50 and 100 mg/kg/d (FIG. 2)): improved
- serum AST levels ([2]; FIG. 3): significantly reduced
- serum creatinine (CREA) ([2]; after administration, vs model group (FIG. 3)): decreased significantly
- serum TC [2, 3]: significantly decreased
- serum TG [2, 3]: significantly decreased
- hypoglycemic effect compared with positive control (metformin, 225 mg/kg) ([2]; high dose group 100 mg/kg/d): better hypoglycemic effect than the positive control
- blood glucose ([2]; high dose group 100 mg/kg/d): significantly reduced
- insulin sensitivity (insulin tolerance test) ([2]; low and high dose groups vs model group, after intraperitoneal insulin (FIG. 2)): restored insulin sensitivity
- hypoglycemic effect compared with positive control (metformin, 225 mg/kg) ([2]; low dose group 50 mg/kg/d): equivalent to that of the positive control group
- blood glucose ([2]; low dose group 50 mg/kg/d): significantly reduced
- reduction of TC compared with metformin ([2]; metformin 225 mg/kg/d): even better than metformin
- blood levels of GLP-1 (male db/db mice; FIG. 6): Increased
- serum content of insulin INS (male db/db mice; after high dose administration (FIG. 6)): significantly increased
- inflammatory cytokine IL-6 (male db/db mice; at low doses (FIG. 6)): significantly decreased
- inflammatory cytokine TNF (male db/db mice; at low doses (FIG. 6)): significantly decreased
- plasma BNP (male db/db mice; at low doses (FIG. 6)): significantly decreased
- insulin sensitivity (insulin tolerance test, ITT) (male db/db mice; db/db mice, gavage 6 weeks, each drug group, especially 12 high-dose group (80 mg/kg/d) (FIG. 4)): significantly improved
- serum ALT (male db/db mice; [4]): significant decreases
- serum AST (male db/db mice; [4]): significant decreases
- serum total bile acid content (male db/db mice; [4]): significant decreases

- inhibition at 1 µM (MNK1): 25 to 50%
- inhibition at 1 µM (MNK2): 25 to 50%
SMILES: CN(C)C1CCN(C(=O)c2ccc(-c3cn4c(-c5ccc(C(F)(F)F)cc5)csc4n3)cc2)CC1 [Compound 54, (4-(dimethylamino)piperidin-1-yl)(4-(3-(4-(trifluoromethyl)ph-enyl)imidazo [2,1-b]thiazol-6-yl)phenyl)methanone]

- inhibition at 1 µM (MNK1): 25 to 50%
- inhibition at 1 µM (MNK2): 25 to 50%
SMILES: CN(C)C1CCN(C(=O)c2ccc(-c3cn4c(-c5ccc(Cl)cc5)csc4n3)cc2)CC1 [Compound 55, (4-(3-(4-chlorophenyl)imidazo[2,1-b]thiazol-6-yl)phenyl)(4-(dimethylamino)piperidin-1-yl)methanone]
